≈ marks a conversion by molar mass, not a printed value.
These compounds were tested on Staphylococcus aureus (ATCC29213) (assay: Microtitre plate assay, IC90 for bacterial growth, Staphylococcus aureus strain). Conditions: 90% inhibitory concentration for bacterial growth, 24 hours at 37° C.
Assay type: cell-based
Description: D.2. In-Vitro Method for Testing Compounds for Anti-Bacterial Activity Against a Non-Mycobacterial Strain
Preparation of Bacterial Suspensions for Susceptibility Testing:
The bacteria used in this study were grown overnight in flasks containing 100 ml Mueller-Hinton Broth (Becton Dickinson—cat. no. 275730) in sterile de-ionized water, with shaking, at 37° C. Stocks (0.5 ml/tube) were stored at −70° C. until use. Bacteria titrations were performed in microtiter plates to detect the TCID50, in which TCID50 represents the dilution that gives rise to bacterial growth in 50% of inoculated cultures. In general, an inoculum level of approximately 100 TCID50 was used for susceptibility testing.
Anti Bacterial Susceptibility Testing: IC90 Determination
Flat-bottom, sterile 96-well plastic microtiter plates were filled with 180 μl of sterile deionized water, supplemented with 0.25% BSA. Subsequently, stock solutions (7.8× final test concentration) of compounds were added in 45 μl volumes in column 2 Serial five-fold dilutions (45 μl in 180 μl) were made directly in the microtiter plates from column 2 to reach column 11. Untreated control samples with (column 1) and without (column 12) inoculum were included in each microtiter plate. Depending on the bacteria type, approximately 10 to 60 CFU per well of bacteria inoculum (100 TCID50), in a volume of 100 μl in 2.8× Mueller-Hinton broth medium, was added to the rows A to H, except column 12. The same volume of broth medium without inoculum was added to column 12 in row A to H. The cultures were incubated at 37° C. for 24 hours under a normal atmosphere (incubator with open air valve and continuous ventilation). At the end of incubation, one day after inoculation, the bacterial growth was quantitated fluorometrically. Therefore resazurin (0.6 mg/ml) was added in a volume of 20 μl to all wells 3 hours after inoculation, and the plates were re-incubated overnight. A change in colour from blue to pink indicated the growth of bacteria. The fluorescence was read in a computer-controlled fluorometer (Cytofluor Biosearch) at an excitation wavelength of 530 nm and an emission wavelength of 590 nm. The % growth inhibition achieved by the compounds was calculated according to standard methods. The IC90 (expressed in μg/ml) was defined as the 90% inhibitory concentration for bacterial growth. The results are shown in Table 7 for an assay using a Staphylococcus aureus strain.

| Compound | IC90 (μg/ml) STA B29213 |
| --- | --- |
| COc1nc2ccc(Br)cc2cc1C(c1ccc(Cl)cc1)C1(O)CCN(Cc2ccccc2)CC1.O=C(O)C(=O)O (centres unmarked) [Compound 36] | 32.85 µg/mL |
| COc1nc2ccc(Br)cc2cc1C(C1Oc2ccccc2O1)C1(O)CCN(Cc2ccccc2)CC1.O=C(O)/C=C/C(=O)O (centres unmarked) [Compound 85] | 34.54 µg/mL |
| COc1nc2ccc(C#N)cc2cc1C(c1ccc(Cl)cc1)C1(O)CCN(Cc2ccc(C)cc2)CC1 (centres unmarked) [Compound 76] | >21.99 µg/mL |
| COc1nc2ccc(Br)cc2cc1C(c1ccc(Cl)c(C(F)(F)F)c1)C1(O)CCN(Cc2ccccc2)CC1.O=C(O)/C=C/C(=O)O (racemic) [Compound 66] | >49.51 µg/mL |
| COc1nc2ccc(Br)cc2cc1C(c1ccc(C)cc1)C1(O)CCN(Cc2ccccc2)CC1 (centres unmarked) [Compound 39] | 33.54 µg/mL (≈ 63.1 µM) |
| COc1nc2ccc(-c3cccnc3)cc2cc1C(c1ccc(Cl)cc1)C1(O)CCN(Cc2ccccc2)CC1.O=C(O)/C=C/C(=O)O (racemic) [Compound 50] | >43.79 µg/mL |
| COc1nc2ccc(-c3cccnc3)cc2cc1C(c1ccc(Cl)cc1)C1(O)CCN(Cc2ccc(C)cc2)CC1.O=C(O)/C=C/C(=O)O (racemic) [Compound 71] | >44.46 µg/mL |
| COc1nc2ccc(Br)cc2cc1C(c1ccc(Cl)cc1)C1(O)CCN(Cc2ccccc2C)CC1.O=C(O)/C=C/C(=O)O (centres unmarked) [Compound 63] | >44.79 µg/mL |
| COc1nc2ccc(Br)cc2cc1C(c1ccc2ccccc2c1)C1(O)CCN(Cc2ccccc2)CC1.O=C(O)/C=C/C(=O)O (centres unmarked) [Compound 56] | >44.60 µg/mL |
| COc1nc2ccc(C(C)C)cc2cc1C(c1ccc(Cl)cc1)C1(O)CCN(Cc2ccccc2)CC1.O=C(O)/C=C/C(=O)O (centres unmarked) [Compound 90] | >41.36 µg/mL |
| COc1nc2ccc(-c3ccco3)cc2cc1C(c1ccc(Cl)cc1)C1(O)CCN(Cc2ccccc2)CC1.O=C(O)/C=C/C(=O)O (racemic) [Compound 64] | >43.02 µg/mL |
| C=Cc1ccc2nc(OC)c(C(c3ccc(Cl)cc3)C3(O)CCN(Cc4ccc(C)cc4)CC3)cc2c1.O=C(O)/C=C/C(=O)O (centres unmarked) [Compound 73] | >41.02 µg/mL |
| COc1nc2ccc(Br)cc2cc1C(c1cccc(Cl)c1)C1(O)CCN(Cc2ccccc2)CC1 (centres unmarked) [Compound 59] | 17.45 µg/mL (≈ 31.6 µM) |
| O=c1[nH]c2ccc(Br)cc2cc1C(c1ccc(Cl)cc1)C1(O)CCNCC1 (centres unmarked) [Compound 79] | 28.25 µg/mL (≈ 63.1 µM) |
| COc1nc2ccc(Br)cc2cc1C(c1ccc(Cl)c(C)c1)C1(O)CCN(Cc2ccccc2)CC1.O=C(O)/C=C/C(=O)O (centres unmarked) [Compound 49] | >44.06 µg/mL |
| CN(C)c1nc2ccc(Br)cc2cc1C(c1ccc(Cl)cc1)C1(O)CCN(Cc2ccccc2)CC1.O=C(O)/C=C/C(=O)O (centres unmarked) [Compound 75] | 34.89 µg/mL |
| COc1nc2cccc(Br)c2cc1C(c1ccccc1)C1(O)CCN(Cc2ccccc2)CC1 (racemic) [Compound 44] | >32.65 µg/mL |
| O=C(O)/C=C/C(=O)O.OC1(C(c2ccc(Cl)cc2)c2cc3cc(Br)ccc3nc2N2CCCCC2)CCN(Cc2ccccc2)CC1 (centres unmarked) [Compound 87] | >48.13 µg/mL |
| COc1nc2ccc(-c3ccccc3)cc2cc1C(c1ccc(Cl)cc1)C1(O)CCN(CCc2ccccc2)CC1.O=C(O)/C=C/C(=O)O (racemic) [Compound 89] | >44.39 µg/mL |
| O=c1[nH]c2ccc(-c3cccnc3)cc2cc1C(c1ccc(Cl)cc1)C1(O)CCN(Cc2ccccc2)CC1 (centres unmarked) [Compound 78] | 13.47 µg/mL (≈ 25.1 µM) |
| COc1nc2ccc(Br)cc2cc1C(c1cc2ccccc2o1)C1(O)CCN(Cc2ccccc2)CC1.O=C(O)/C=C/C(=O)O (centres unmarked) [Compound 54] | >43.45 µg/mL |
| COc1nc2ccc(-c3ccccc3)cc2cc1C(c1ccc(Cl)cc1)C1(O)CCN(Cc2ccc(C)cc2)CC1.O=C(O)/C=C/C(=O)O (racemic) [Compound 69] | >44.98 µg/mL |

| Compound | IC90 (μg/ml) STA B29213 |
| --- | --- |
| COc1nc2ccc(Br)cc2cc1C(c1ccccc1F)C1(O)CCN(Cc2ccccc2)CC1 (racemic) [Compound 83] | >33.79 µg/mL |
| O=c1[nH]c2ccc(Br)cc2cc1C(c1ccc(Cl)cc1)C1(O)CCN(CCc2ccccc2)CC1 (centres unmarked) [Compound 74] | 6.95 µg/mL (≈ 12.6 µM) |
| COc1ccc2nc(OC)c(C(c3ccc(Cl)cc3)C3(O)CCN(Cc4ccccc4)CC3)cc2c1.O=C(O)/C=C/C(=O)O (centres unmarked) [Compound 81] | 10.05 µg/mL |
| COc1nc2ccc(Br)cc2cc1C(c1ccc(Cl)c(C)c1)C1(O)CCN(Cc2ccccc2)CC1 (centres unmarked) [Compound 48] | >35.71 µg/mL |
| COc1nc2ccc(Br)cc2cc1C(c1cccc(F)c1)C1(O)CCN(Cc2ccccc2)CC1 (racemic) [Compound 84] | >33.79 µg/mL |
| COc1nc2ccc(Br)cc2cc1C(c1ccc(Cl)cc1)C1(O)CCN(Cc2ccccc2)CC1.O=C(O)/C=C/C(=O)O (centres unmarked) [Compound 35] | >43.03 µg/mL |
| COc1nc2ccc(Br)cc2cc1C(c1ccccc1)C1(O)CCN(C(C)C)CC1 (centres unmarked) [Compound 30] | >29.62 µg/mL |
| COc1nc2ccc(C(F)(F)F)cc2cc1C(c1ccc(Cl)cc1)C1(O)CCN(Cc2ccccc2)CC1.O=C(O)/C=C/C(=O)O (centres unmarked) [Compound 86] | >43.95 µg/mL |
| COc1nc2ccc(Br)cc2cc1C(c1ccccc1)C1(O)CCN(Cc2ccccc2)CC1 (centres unmarked) [Compound 29] | 32.65 µg/mL (≈ 63.1 µM) |
| COc1nc2ccc(Br)cc2cc1C(c1cccc(Cl)c1)C1(O)CCN(Cc2ccccc2)CC1.O=C(O)/C=C/C(=O)O (centres unmarked) [Compound 60] | >43.03 µg/mL |
| COc1ccc2nc(OC)c(C(c3ccccc3)C3(O)CCN(Cc4ccccc4)CC3)cc2c1 (racemic) [Compound 34] | >29.57 µg/mL |
| COc1nc2ccc(Cl)cc2cc1C(c1ccccc1)C1(O)CCN(Cc2ccccc2)CC1 (racemic) [Compound 33] | 14.96 µg/mL (≈ 31.6 µM) |
| COc1nc2ccc(Br)cc2cc1C(c1ccc(Cl)cc1)C1(O)CCNCC1.O=C(O)/C=C/C(=O)O (centres unmarked) [Compound 45] | 19.23 µg/mL |
| COc1nc2ccc(Br)cc2cc1C(c1ccc(Cl)c(F)c1)C1(O)CCN(Cc2ccccc2)CC1.O=C(O)/C=C/C(=O)O (centres unmarked) [Compound 53] | >44.89 µg/mL |
| COc1nc2ccc(Br)cc2cc1C(c1ccc(Cl)cc1)C1(O)CCN(CCc2ccccc2)CC1 (centres unmarked) [Compound 46] | >35.71 µg/mL |
| COc1ccc(C(c2cc3cc(Br)ccc3nc2OC)C2(O)CCN(Cc3ccccc3)CC2)cc1 (centres unmarked) [Compound 40] | 13.75 µg/mL (≈ 25.1 µM) |
| COc1nc2ccc(Br)cc2cc1C(c1ccccc1)C1(O)CCN(Cc2cccc(C)c2)CC1 (centres unmarked) [Compound 38] | >33.54 µg/mL |
| COc1nc2ccc(-c3ccncc3)cc2cc1C(c1ccccc1)C1(O)CCN(Cc2ccccc2)CC1 (racemic) [Compound 31] | >32.54 µg/mL |
| CSc1nc2ccccc2cc1C(c1ccccc1)C1(O)CCN(Cc2ccccc2)CC1 (racemic) [Compound 32] | >28.69 µg/mL |
| COc1nc2ccccc2cc1C(c1ccc(Cl)cc1)C1(O)CCN(Cc2ccccc2)CC1.O=C(O)/C=C/C(=O)O (racemic) [Compound 52] | 19.77 µg/mL |
| COc1nc2ccc(-c3ccco3)cc2cc1C(c1ccc(Cl)cc1)C1(O)CCN(Cc2ccc(C)cc2)CC1.O=C(O)/C=C/C(=O)O (racemic) [Compound 70] | >44.71 µg/mL |

Same assay, conditions: 90% inhibitory concentration for bacterial growth, 24 hours at 37° C., read-out: IC90 (μg/ml) STA B29213

| Compound | IC90 |
| --- | --- |
| COc1nc2ccc(Br)cc2cc1C(c1ccccc1)C1(O)CCN(CCc2ccccc2)CC1 (centres unmarked) [Compound 5] | 8.42 µg/mL (≈ 15.8 µM) |
| COc1nc2ccc(-c3ccccc3)cc2cc1C(c1ccccc1)C1(O)CCN(Cc2ccccc2)CC1 (centres unmarked) [Compound 4] | > 32.5 µg/mL |
| COc1nc2ccc(Br)cc2cc1[C@H](c1ccc(Cl)cc1)C1(O)CCN(Cc2ccccc2)CC1 [Compound 8] | > 34.8 µg/mL |
| COc1nc2ccc(Br)cc2cc1[C@@H](c1ccc(Cl)cc1)C1(O)CCN(Cc2ccccc2)CC1 [Compound 7] | > 34.8 µg/mL |
